Experimental data from article PMC4503722, “Novel Phenotypic Outcomes Identified for a Public Collection of Approved Drugs from a Publicly Accessible Panel of Assays” (PLoS ONE, 2015).
Where two headings read alike, the source gives them in different places.

Columns and labels:
[1] = tested on: INS-1E cells; test: cells; type: cell-based, rat
[2] = molecular target: T1, hJAK2 (Homo sapiens, UniProt O60674); test: Cerep LANCE kinase assay hJAK2 (S1 assay 33); type: biochemical; settings: read-out: JAK2
T1 construct: purchased Cerep (LANCE kinase assay platform, contract assay)
T1 sequence (O60674 whole entry): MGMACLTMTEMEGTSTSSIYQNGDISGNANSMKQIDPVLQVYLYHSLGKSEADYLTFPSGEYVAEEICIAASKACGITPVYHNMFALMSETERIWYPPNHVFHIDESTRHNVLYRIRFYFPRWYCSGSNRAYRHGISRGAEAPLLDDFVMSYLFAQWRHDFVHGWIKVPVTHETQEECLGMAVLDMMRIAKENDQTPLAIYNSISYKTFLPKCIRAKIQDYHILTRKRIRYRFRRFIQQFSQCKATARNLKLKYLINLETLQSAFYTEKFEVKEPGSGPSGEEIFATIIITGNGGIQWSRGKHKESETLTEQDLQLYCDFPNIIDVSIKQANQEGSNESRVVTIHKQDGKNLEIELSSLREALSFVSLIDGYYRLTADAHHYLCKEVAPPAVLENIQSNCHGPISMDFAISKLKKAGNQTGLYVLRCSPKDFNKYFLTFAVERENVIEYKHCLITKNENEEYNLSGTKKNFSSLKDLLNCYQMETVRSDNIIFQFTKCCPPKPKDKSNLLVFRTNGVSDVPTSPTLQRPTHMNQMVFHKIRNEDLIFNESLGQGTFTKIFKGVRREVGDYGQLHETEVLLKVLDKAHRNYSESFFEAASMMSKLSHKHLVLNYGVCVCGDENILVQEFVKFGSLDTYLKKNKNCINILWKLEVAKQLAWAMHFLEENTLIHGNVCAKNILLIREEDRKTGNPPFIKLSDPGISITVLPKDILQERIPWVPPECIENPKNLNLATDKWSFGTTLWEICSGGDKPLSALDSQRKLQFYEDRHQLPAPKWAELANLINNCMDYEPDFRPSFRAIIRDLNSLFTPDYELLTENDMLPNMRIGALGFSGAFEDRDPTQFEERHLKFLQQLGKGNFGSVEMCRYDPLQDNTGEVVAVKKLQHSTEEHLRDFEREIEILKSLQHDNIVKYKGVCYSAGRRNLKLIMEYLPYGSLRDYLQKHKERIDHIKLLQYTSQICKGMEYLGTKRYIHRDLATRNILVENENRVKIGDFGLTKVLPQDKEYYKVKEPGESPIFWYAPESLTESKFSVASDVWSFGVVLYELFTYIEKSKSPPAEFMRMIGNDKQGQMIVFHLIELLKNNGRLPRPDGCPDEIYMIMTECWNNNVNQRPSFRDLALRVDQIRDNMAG

[3] = tested on: NCI-H716 cells; test: cells; type: cell-based, Human
[4] = tested on: SW480; test: cells; type: cell-based; settings: Homo sapiens
[5] = tested on: HCT116; test: cells; type: cell-based; settings: Homo sapiens
[6] = tested on: SNU-C1; test: cells; type: cell-based; settings: Homo sapiens
[7] = molecular target: T2, hFLT3 (Homo sapiens, UniProt P36888); test: Cerep LANCE kinase assay hFLT3 (S1 assay 35); type: biochemical; settings: read-out: FLT3
T2 construct: purchased Cerep (LANCE kinase assay platform, contract assay)
T2 sequence (P36888 27-993): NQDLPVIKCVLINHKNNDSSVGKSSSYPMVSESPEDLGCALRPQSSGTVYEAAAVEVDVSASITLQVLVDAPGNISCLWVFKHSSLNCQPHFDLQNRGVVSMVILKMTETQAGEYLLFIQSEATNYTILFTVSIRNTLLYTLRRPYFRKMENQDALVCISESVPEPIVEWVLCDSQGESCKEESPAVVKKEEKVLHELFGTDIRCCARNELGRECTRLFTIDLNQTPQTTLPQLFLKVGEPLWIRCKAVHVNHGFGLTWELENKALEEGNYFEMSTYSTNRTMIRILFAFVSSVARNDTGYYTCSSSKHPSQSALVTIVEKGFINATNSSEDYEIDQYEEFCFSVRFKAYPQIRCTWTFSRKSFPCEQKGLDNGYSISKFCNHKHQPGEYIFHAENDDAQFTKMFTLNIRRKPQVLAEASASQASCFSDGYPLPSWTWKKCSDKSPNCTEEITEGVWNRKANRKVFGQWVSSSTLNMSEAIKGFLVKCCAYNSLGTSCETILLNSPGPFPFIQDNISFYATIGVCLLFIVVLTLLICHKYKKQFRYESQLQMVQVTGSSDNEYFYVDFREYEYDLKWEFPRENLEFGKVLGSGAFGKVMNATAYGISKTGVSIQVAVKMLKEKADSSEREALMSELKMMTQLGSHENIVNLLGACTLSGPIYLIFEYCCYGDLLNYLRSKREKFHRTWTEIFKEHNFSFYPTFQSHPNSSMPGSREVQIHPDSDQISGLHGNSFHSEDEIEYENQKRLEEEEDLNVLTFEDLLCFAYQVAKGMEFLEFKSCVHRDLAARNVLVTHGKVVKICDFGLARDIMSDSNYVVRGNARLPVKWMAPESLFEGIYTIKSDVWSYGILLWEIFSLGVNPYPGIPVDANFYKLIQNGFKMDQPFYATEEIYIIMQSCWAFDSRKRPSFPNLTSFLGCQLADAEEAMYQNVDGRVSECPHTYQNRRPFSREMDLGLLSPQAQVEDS

[8] = tested on: Colo320; test: cells; type: cell-based; settings: Homo sapiens
[9] = tested on: HT-29; test: cells; type: cell-based
[10] = tested on: endothelial tube formation in co-cultures of ECFCs and ADSCs treated with VEGF; test: cells; type: cell-based, human
[11] = molecular target: T3, hp70S6K1 (RPS6KB1) (Homo sapiens, UniProt P23443); test: Cerep LANCE kinase assay hp70S6K1 (S1 assay 31); type: biochemical; settings: read-out: p70S6K1
T3 construct: purchased Cerep (LANCE kinase assay platform, contract assay)
T3 sequence (P23443 whole entry): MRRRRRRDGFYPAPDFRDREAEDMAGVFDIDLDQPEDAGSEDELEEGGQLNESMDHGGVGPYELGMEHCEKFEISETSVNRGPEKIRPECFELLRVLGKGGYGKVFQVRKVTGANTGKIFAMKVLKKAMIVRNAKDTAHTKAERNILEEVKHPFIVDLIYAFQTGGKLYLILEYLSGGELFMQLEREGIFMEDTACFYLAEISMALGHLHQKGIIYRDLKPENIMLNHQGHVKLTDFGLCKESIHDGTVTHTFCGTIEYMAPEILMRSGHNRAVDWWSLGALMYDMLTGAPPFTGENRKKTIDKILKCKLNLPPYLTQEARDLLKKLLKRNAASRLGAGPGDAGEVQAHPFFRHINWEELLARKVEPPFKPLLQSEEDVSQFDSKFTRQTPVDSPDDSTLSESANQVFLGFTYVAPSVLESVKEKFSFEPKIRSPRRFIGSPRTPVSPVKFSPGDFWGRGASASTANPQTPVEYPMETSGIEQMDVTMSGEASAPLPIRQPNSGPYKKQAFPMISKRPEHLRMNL

[12] = tested on: HCT116 cells treated with a GSK3β inhibitor; test: cells; type: cell-based; settings: Homo sapiens
[13] = molecular target: T4, hKDR (Homo sapiens, UniProt P35968); test: Cerep LANCE kinase assay hKDR (S1 assay 32); type: biochemical; settings: read-out: KDR
T4 construct: purchased Cerep (LANCE kinase assay platform, contract assay)
T4 sequence (P35968 20-1356): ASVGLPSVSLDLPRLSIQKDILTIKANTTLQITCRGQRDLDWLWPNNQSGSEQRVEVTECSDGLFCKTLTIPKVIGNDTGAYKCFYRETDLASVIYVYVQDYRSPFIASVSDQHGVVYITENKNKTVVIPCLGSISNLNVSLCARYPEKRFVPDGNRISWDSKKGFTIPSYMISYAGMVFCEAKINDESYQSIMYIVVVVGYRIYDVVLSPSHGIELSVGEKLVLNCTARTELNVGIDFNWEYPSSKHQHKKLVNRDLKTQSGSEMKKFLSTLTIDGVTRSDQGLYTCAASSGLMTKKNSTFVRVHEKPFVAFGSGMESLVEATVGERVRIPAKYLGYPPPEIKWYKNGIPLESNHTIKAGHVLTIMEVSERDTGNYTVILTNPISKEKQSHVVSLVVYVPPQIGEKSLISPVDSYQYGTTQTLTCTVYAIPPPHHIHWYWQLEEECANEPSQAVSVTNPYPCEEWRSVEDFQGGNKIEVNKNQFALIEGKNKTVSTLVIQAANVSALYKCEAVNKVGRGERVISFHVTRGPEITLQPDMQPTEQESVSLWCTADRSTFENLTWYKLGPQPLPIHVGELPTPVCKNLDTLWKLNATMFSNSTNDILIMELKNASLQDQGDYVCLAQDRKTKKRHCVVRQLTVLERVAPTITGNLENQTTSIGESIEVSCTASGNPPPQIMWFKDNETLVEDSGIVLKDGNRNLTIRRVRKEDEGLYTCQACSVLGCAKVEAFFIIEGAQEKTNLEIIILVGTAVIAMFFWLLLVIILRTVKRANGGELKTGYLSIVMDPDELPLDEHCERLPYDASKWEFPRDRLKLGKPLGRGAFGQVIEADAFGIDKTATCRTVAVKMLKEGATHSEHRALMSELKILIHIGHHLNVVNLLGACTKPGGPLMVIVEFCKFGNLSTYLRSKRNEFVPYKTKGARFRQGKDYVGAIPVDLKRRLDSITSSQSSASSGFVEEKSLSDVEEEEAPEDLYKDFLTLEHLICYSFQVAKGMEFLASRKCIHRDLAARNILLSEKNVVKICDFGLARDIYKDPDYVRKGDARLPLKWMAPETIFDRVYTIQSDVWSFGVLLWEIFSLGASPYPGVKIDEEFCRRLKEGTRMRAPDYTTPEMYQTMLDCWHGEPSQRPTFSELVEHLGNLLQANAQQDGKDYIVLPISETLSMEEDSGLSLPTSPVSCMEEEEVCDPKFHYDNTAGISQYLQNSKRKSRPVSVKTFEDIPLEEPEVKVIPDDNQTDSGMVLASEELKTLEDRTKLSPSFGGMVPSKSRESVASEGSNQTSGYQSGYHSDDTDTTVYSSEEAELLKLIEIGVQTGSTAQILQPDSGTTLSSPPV

[14] = tested on: HeLa cells; test: cells; type: cell-based; settings: read-out: CellCycle G2/M
[15] = molecular target: T5, hGSK3b (Homo sapiens, UniProt P49841); test: Cerep LANCE kinase assay hGSK3b (S1 assay 34); type: biochemical; settings: read-out: GSK3b
T5 construct: purchased Cerep (LANCE kinase assay platform, contract assay)
T5 sequence (P49841 whole entry): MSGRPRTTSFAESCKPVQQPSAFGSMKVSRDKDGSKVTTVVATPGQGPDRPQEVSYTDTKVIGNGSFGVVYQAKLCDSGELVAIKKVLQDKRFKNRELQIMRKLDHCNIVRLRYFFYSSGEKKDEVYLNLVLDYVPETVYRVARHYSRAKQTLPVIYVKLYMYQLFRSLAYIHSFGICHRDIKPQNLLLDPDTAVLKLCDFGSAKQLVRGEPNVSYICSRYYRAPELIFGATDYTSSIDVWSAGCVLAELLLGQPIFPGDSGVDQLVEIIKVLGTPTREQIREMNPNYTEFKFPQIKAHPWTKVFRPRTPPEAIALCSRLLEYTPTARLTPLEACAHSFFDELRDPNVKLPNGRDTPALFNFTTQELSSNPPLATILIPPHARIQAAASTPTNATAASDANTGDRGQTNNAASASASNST

[16] = tested on: RKO; test: cells; type: cell-based
[17] = tested on: nuclear β-catenin in C2C12 cells; test: cells; type: cell-based
[18] = tested on: DLD-1; test: cells; type: cell-based; settings: Homo sapiens
[19] = SW480, read-out: Basal_Viability ATP SW480
[20] = HCT-116, read-out: Basal_Viability ATP HCT116
[21] = COLO 320, read-out: Basal_Viability ATP Colo 320
[22] = Homo sapiens, HT-29, read-out: Basal_Viability ATP HT-29
[23] = Homo sapiens, read-out: Anti-Angiogenesis
[24] = HCT-116, read-out: GSK3b inh pretreated_Viability ATP HCT116
[25] = Homo sapiens, RKO, read-out: Basal_Viability ATP RKO
[26] = Mus musculus, C2C12, read-out: Wnt Pathway
[27] = DLD-1, read-out: Basal_Viability ATP DLD-1
[28] = Rattus norvegicus, INS-1E, read-out: Insulin Secretion
[29] = Homo sapiens, NCI-H716, read-out: GLP 1 Secretion

| Compound | IC50 [2] [nM] | IC50 [4, 19] [nM] | IC50 [5, 20] [nM] | IC50 [7] [nM] | IC50 [8, 21] [nM] | IC50 [9, 22] [nM] | IC50 [10, 23] [nM] | IC50 [11] [nM] | IC50 [12, 24] [nM] | IC50 [13] [nM] | EC50 ([14]; Homo sapiens, HeLa) [nM] | IC50 [15] [nM] | IC50 [16, 25] [nM] | EC50 [17, 26] [nM] | IC50 [18, 27] [nM] | EC50 [1, 28] [nM] | EC50 [3, 29] [nM] | also measured |
| --- | --- | --- | --- | --- | --- | --- | --- | --- | --- | --- | --- | --- | --- | --- | --- | --- | --- | --- |
| COc1cc(NCc2ccc3nc(N)nc(N)c3c2C)cc(OC)c1OC [trimetrexate, reference compound] | > 20000 | 59.1 | 23.1 | > 20000 | 386 | 21.2 | 4420 | > 20000 | 3.92 | > 20000 | > 10000 | > 20000 | 2.72 | 3.3 | 195 |  |  | EC50 ([1]; Rattus norvegicus, INS-1E, read-out: Ins. sec. EC50): > 10000 nM; EC50 ([3]; Homo sapiens, NCI-H716, read-out: GLP1 sec. EC50): > 10000 nM; IC50 ([4]; SW480, 72 h, read-out: SW480 viab. IC50): 59 nM; IC50 ([5]; HCT-116, 72 h, read-out: HCT-116 viab. IC50): 23 nM; IC50 ([6]; SNU-C1, 72 h, read-out: SNU-C1 viab. IC50): 5100 nM; IC50 ([6]; SNU-C1, read-out: Basal_Viability ATP SNU-C1): 5130 nM; IC50 ([8]; COLO 320, 72 h, read-out: Colo320 viab. IC50): 390 nM; IC50 ([9]; Homo sapiens, HT-29, 72 h, read-out: HT-29 viab. IC50): 21 nM; IC50 ([10]; Homo sapiens, read-out: Anti-Angio IC50): 4400 nM; IC50 ([12]; HCT-116, 72 h, read-out: HCT-116 (GSK3β) viab. IC50): 4 nM; IC50 ([16]; Homo sapiens, RKO, 72 h, read-out: RKO viab. IC50): 3 nM; EC50 ([17]; Mus musculus, C2C12, read-out: Wnt pot. EC50): 3 nM; IC50 ([18]; DLD-1, 72 h, read-out: DLD-1 viab. IC50): 200 nM |
| CC(C)C[C@H](NC(=O)[C@H](CCc1ccccc1)NC(=O)CN1CCOCC1)C(=O)N[C@@H](Cc1ccccc1)C(=O)N[C@@H](CC(C)C)C(=O)[C@@]1(C)CO1 [carfilzomib, reference compound] | > 20000 |  |  | > 20000 |  |  |  | > 20000 |  | > 20000 |  | > 20000 |  |  |  |  |  | EC50 ([1]; Rattus norvegicus, INS-1E; read-out: Ins. sec. EC50): > 10000 nM; EC50 ([3]; Homo sapiens, NCI-H716; read-out: GLP1 sec. EC50): > 10000 nM; IC50 ([5]; HCT-116, 72 h, read-out: HCT-116 viab. IC50, Table 2, basal, 72 h, Cell TiterGlo, non-adherent, 20 coded): 6 nM; IC50 ([5]; HCT-116, basal, read-out: Basal_Viability ATP HCT116): 5.58 nM; IC50 ([6]; SNU-C1, 72 h, Table 2, 72 h, Cell TiterGlo, non-adherent, 20 coded, read-out: SNU-C1 viab. IC50): 1 nM; IC50 ([6]; SNU-C1, basal, read-out: Basal_Viability ATP SNU-C1): 1.47 nM; IC50 ([9]; Homo sapiens, HT-29; Table 2; 72 h, Cell TiterGlo, non-adherent; 20 coded; read-out: HT-29 viab. IC50): 3 nM; IC50 ([9]; Homo sapiens, HT-29; read-out: Basal_Viability ATP HT-29): 3.18 nM; IC50 ([10]; Homo sapiens, IC50 / EC50; endothelial tube area, ADSC/ECFC co-culture; read-out: Anti-Angiogenesis): 20.4 nM; IC50 ([10]; Homo sapiens; read-out: Anti-Angio IC50): 20 nM; IC50 ([12]; HCT-116, read-out: HCT-116 (GSK3β) viab. IC50, Table 2, GSK3β inhibitor LY2090314 20 nM, 72 h, Cell TiterGlo, 20 coded): 2 nM; IC50 ([12]; HCT-116, GSK3b inhibitor pretreated, read-out: GSK3b inh pretreated_Viability ATP HCT116): 1.73 nM; EC50 ([14]; Homo sapiens, HeLa, IC50 / EC50, HeLa): > 10000 nM; IC50 ([16]; Homo sapiens, RKO; Table 2; 72 h, Cell TiterGlo, non-adherent; 20 coded; read-out: RKO viab. IC50): 4 nM; IC50 ([16]; Homo sapiens, RKO; read-out: Basal_Viability ATP RKO): 3.94 nM; EC50 ([17]; Mus musculus, C2C12, IC50 / EC50; C2C12 beta-catenin translocation; read-out: Wnt Pathway): 15.2 nM; EC50 ([17]; Mus musculus, C2C12; read-out: Wnt pot. EC50): 15 nM; IC50 ([18]; DLD-1, 72 h, Table 2, 72 h, Cell TiterGlo, non-adherent, 20 coded, read-out: DLD-1 viab. IC50): 7 nM; IC50 ([18]; DLD-1, basal, read-out: Basal_Viability ATP DLD-1): 6.96 nM |
| CC[C@]1(O)C[C@@H]2CN(CCc3c([nH]c4ccccc34)[C@@](C(=O)OC)(c3cc4c(cc3OC)N(C)[C@H]3[C@@](O)(C(=O)OC)[C@H](OC(C)=O)[C@]5(CC)C=CCN6CC[C@]43[C@@H]65)C2)C1 [Vinblastine] | > 20000 |  |  | > 20000 | 1 | 1 | 2.3 | > 20000 | 1 | > 20000 | 3.2 | > 20000 | 1 | 5.8 |  | > 10000 | > 10000 | IC50 ([10]; read-out: Anti-Angiogenesis): 2.6 nM; EC50 [14]: 4.83 nM; EC50 ([17]; read-out: Wnt Pathway): 3.5 nM |
| CC(C)(C)[C@H]1CC[C@H](CC2=C(O)C(=O)c3ccccc3C2=O)CC1 [Buparvaquone] | > 20000 | 205 | 227 | > 20000 | 255 | 3390 | 1960 | > 20000 | 66.7 | > 20000 | > 10000 | > 20000 | 133 | > 10000 | 218 | > 10000 | > 10000 |  |
| COC(=O)Nc1nc2ccc([S+]([O-])c3ccccc3)cc2[nH]1 (stereo not drawn) [Oxfendazole] |  | > 20000 | 1 |  |  | > 20000 | 288 |  | 1 |  | 331 |  | 1 | 468 | > 20000 | > 10000 | > 10000 | IC50 ([2]; kinase assay): > 20000 nM; IC50 ([7]; kinase assay): > 20000 nM; IC50 ([11]; kinase assay): > 20000 nM; IC50 ([13]; kinase assay): > 20000 nM; IC50 ([15]; kinase assay): > 20000 nM |
